Broadly, the EC50 is the concentration needed to bring the measured effect to its halfway point.

Series [1] is described as follows: Stability of the compounds in human serum (RP-HPLC). Type of series: in vitro ADME. To be noted: 37 °C; for % Compd ± SE: 200 µM; for half-life at 200 µM: male, read-out: Half-life (t1/2). As to the method:
A solution of each compound (10 mM) in DMSO was added to human serum (obtained by filtration and sterilization from AB, Sigma-Aldrich (Merck KGaA, 64,271 Darmstadt, Germany) male human blood) and was preheated to 37 °C to obtain a final concentration of 200 µM. The resulting solution was incubated at 37.0 ± 0.5 °C, and aliquots of 300 µL were taken at appropriate time intervals and added to 300 µL of CH3CN acidified with 0.1% formic acid in order to deproteinize the serum. The mixture was centrifuged for 10 min at 2150× g, and the clear supernatant was filtered (PTFE filters, 0.45 µm, VWR (VWR International S.r.l., Milano, Italy)) and analyzed by RP-HPLC as described below. All experiments were performed at least in triplicate.
(§1) RP-HPLC analysis was performed with an HP 1100 chromatograph system (Agilent Technologies, Palo Alto, CA, USA) equipped with an injector (Rheodyne, Cotati, CA, USA), a quaternary pump (model G1311A), a membrane degasser (model G1379A), and a diode-array detector (DAD, model G1315B) integrated into the HP1100 system. The data were processed using an HP ChemStation system (Agilent Technologies, Palo Alto, CA, USA). A stationary phase Tracer Excel 120 ODSB (25 × 0.46, 5 μm; Tecnokroma (Teknokroma Analytical S.A., Barcelona, Spain)) was used. The mobile phase consisted of acetonitrile 0.1% HCOOH/water 0.1% HCOOH at a flow rate of 1.0 mL/min, with gradient elution: 35% acetonitrile up to 5 min, 35 to 80% acetonitrile between 5 and 10 min, 80% acetonitrile between 10 and 20 min. The injection volume was 20 μL. The column effluent was monitored for each compound at the wavelength of maximum absorption (referenced against a 700 nm wavelength). Using this RP-HPLC procedure, we separated the compounds from any degradation products and we quantified the compounds during incubation time. The quantification was performed using a calibration curve obtained with standard solutions of compounds chromatographed under the same experimental conditions, in a concentration range of 1–100 μM (r^2 > 0.99).

A short description of series [2]: Stability at pH 7.4 in phosphate buffer (PBS). Type of series: physicochemical. The note with it: PBS pH 7.4, 37 °C. On the procedure:
(§2) The compounds were solubilized at a concentration of 100 µM (starting from a 10 mM stock solution in DMSO) in 0.1 M PBS, pH = 7.4, in the absence or presence of 5 mM L-cysteine (50×). The solutions were incubated at 37.0 ± 0.5 °C, and at appropriate time intervals, aliquots were analyzed by RP-HPLC as described below. All experiments were performed at least in triplicate.
as §1

A short description of series [3]: Stability at pH 7.4 in PBS in the presence of L-cysteine (50x). To be noted: pH 7.4, 37 °C; for half-life at 100 µM: phosphate buffer (PBS) with L-cysteine, read-out: t1/2, buffer + cysteine (50×) (converted). Type of series: physicochemical. On the procedure: as §2, §1
For another series, the system named is rat aorta strips. Description: Vasodilating activity on endothelium-denuded rat aorta strips precontracted with KCl. Type of series: cell-based. The note with it: for EC50: endothelium-denuded rat aorta strips precontracted with 25 mM KCl, read-out: Vasodilating activity EC50 ± SEM; for Effect of glibenclamide on the concentration-response curve / EC50: presence vs absence of K+ATP channel blocker glibenclamide; for activation at 300 µM / activation at 10 µM / activation at 100 µM: rat aorta strips precontracted with KCl, read-out: % Vasodilation at the maximum concentration testable. As to the method:
Vasodilating activity was studied on the thoracic aortas from male Wistar rats (180–200 g), following a protocol published elsewhere. All synthesized compounds were dissolved in DMSO. The addition of the vehicle had no perceptible consequence on contraction level. Results were expressed as EC50 ± SE (μM), n = 3–8.
The vasodilator action of H2S-releasing compounds was evaluated on endothelium-denuded rat aorta strips precontracted with KCl. The results reported in Table 1 show the heterogeneous behavior of the tested compounds.

Series [4] deals with endothelium-intact rat aortic rings. Put plainly: Vasoprotection: acetylcholine-induced relaxation in rat aortic rings with endothelium impairment induced by pyrogallol. Type of series: cell-based. As to the method:
The experiments were performed on rat thoracic aortic rings from male Wistar rats (180–200 g), prepared as previously described. The effect of H2S donor or catechin, taken as a reference, on acetylcholine-induced relaxation in aortic rings pre-incubated with pyrogallol was studied as published elsewhere, with some modifications. Aortic rings were incubated with diethyldithiocarbamate (DETCA) 10 mM for 1 h to irreversibly inactivate endogenous superoxide dismutase (SOD). Then, the aortic rings were washed and randomly divided into four groups: (1) control: endothelium-intact rings incubated in Krebs’ solution with vehicle only (DMSO); (2) H2S donor: endothelium-intact rings incubated with H2S donor (100 μM) or reference catechin (10 mM) for 30 min; (3) pyrogallol: endothelium-intact rings incubated with 500 μM pyrogallol for 15 min; (4) H2S donor plus pyrogallol: endothelium-intact rings incubated with H2S donor (100 μM) or reference catechin (10 mM) for 30 min and 500 μM pyrogallol for the last 15 min. After the incubation time, the rings were washed, 1 μM phenylephrine was added to the organ baths, then acetylcholine (10^−9–l0^−5 M) was added cumulatively. Tension was measured and calculated as the percentage of contraction in response to phenylephrine (1 μM). Data were expressed as mean ± SEM, n = 3–9.
Figure 3 Effect of 6 (100 μM) on acetylcholine-induced vasodilation in endothelium-intact rat aortic rings. […] Statistical analyses were made using Student’s t-test for unpaired data. ** p < 0.01 vs. the pyrogallol group.

With `C=CCSCC(NC(C)=O)C(=O)O` (stereo not shown) [Compound 1], the “% Compd ± SE” value is 88 ± 1% in series [1] (1 h), 35 ± 1% in series [1] (4 h) and 8.0 ± 0.5% in series [1] (24 h). Also, in series [2] (24 h), the “Stability (% compound ± SE), buffer” value stood at 91.5 ± 1.0%. Also, the “Stability (% compound ± SE), buffer + cysteine (50×)” value (“Stability (% compound ± SE) … (50×)” for short) in series [3] (1 h) is listed as 87.3 ± 1.0%; in series [3] (6 h), 72.5 ± 1.0%; in series [3] (24 h), 69.5 ± 1.0%.

Regarding `C=CCSSCCC(=O)O` [Compound 3], the figures for the “% Compd ± SE” value in series [1] (1 h), in series [1] (4 h) and in series [1] (24 h) were 80.0 ± 1.0%, 62 ± 2% and 44 ± 1%, respectively. In addition, the “Stability (% compound ± SE), buffer” value in series [2] (24 h) worked out at 101.0 ± 1.0%. For the same compound, the half-life at 100 µM in series [3] is roughly 0.167 h.

As to `C=CCSSCCC(=O)OCC` [Compound 4], in series [1], the half-life at 200 µM was less than 0.5 h. In addition, the “% Vasodilation at the maximum concentration testable, + Glib. 10 μM” value with rat aorta strips (100 μM, in the presence of glibenclamide 10 μM) is “[44 ± 3] ^2%”. For the same compound, in the series on rat aorta strips, the EC50 was 64 ± 6 µM and the “Effect of glibenclamide on the concentration-response curve / EC50” value was “significantly rightward shifted”.

With `C=CCSSCC(NC(C)=O)C(=O)O` (stereo not shown) [Compound 5], the “% Compd ± SE” value was 64 ± 1% in series [1] (1 h), 39 ± 1% in series [1] (4 h) and 16 ± 1% in series [1] (24 h). In addition, in the series on rat aorta strips, the activation at 300 µM was determined as 16%. Further, in series [2] (24 h), the “Stability (% compound ± SE), buffer” value worked out at 87.7 ± 1.0%. Further, the half-life at 100 µM in series [3] was roughly 0.0833 h.

For the compound `O=C(O)CCC(=O)NSC(=O)c1ccccc1` [Compound 7], the figures for the “% Compd ± SE” value in series [1] (1 h), in series [1] (4 h) and in series [1] (24 h) were 19.8 ± 0.7%, 0% and 0%, respectively. The activation at 300 µM in the series with rat aorta strips turned out to be 12%. Besides, the results for the “Stability (% compound ± SE), buffer” value in series [2] (6 h) and in series [2] (24 h) were 91.6 ± 1.1% and 57.1 ± 3.3%, respectively. Moreover, in series [3], the half-life at 100 µM was roughly 1.3 h.

On to `CC(=O)NSC(=O)c1ccccc1` [Compound 8], for which the half-life at 200 µM in series [1] was less than 0.5 h. Further, the “Effect of glibenclamide on the concentration-response curve / EC50” value in the series on rat aorta strips was “almost the same”. For the same compound, the Ach-induced maximum relaxation result in series [4] (H2S donor 100 μM without exposure to pyrogallol) is “did not reduce Ach-induced maximum relaxation”. The Ach-induced maximal relaxation entry in series [4] (rings incubated with H2S donor 100 μM 30 min and 500 μM pyrogallol last 15 min) is listed as “not able to reduce pyrogallol-induced endothelium impairment”.

As for `O=C(O)c1ccc(-c2ssc(=S)c2-c2ccccc2)cc1` [Compound 9], the “% Compd ± SE” value in series [1] (1 h) is 94.2 ± 0.2%; in series [1] (4 h), 90.0 ± 0.8%; in series [1] (24 h), 83 ± 1%. In the series on rat aorta strips, the EC50 stood at 78 ± 7 µM. Further, the “Effect of glibenclamide on the concentration-response curve / EC50” value with rat aorta strips is given as “significantly rightward shifted”. Also, the “Stability (% compound ± SE), buffer” value in series [2] (24 h) was 92.6 ± 0.8%. Also, the “Stability (% compound ± SE) … (50×)” value in series [3] (1 h) is recorded as 98.6 ± 0.3%; in series [3] (6 h) it was 94.9 ± 0.7%; in series [3] (24 h), 78.1 ± 0.3%.

Consider `COC(=O)c1ccc(-c2ssc(=S)c2-c2ccccc2)cc1` [Compound 10], for which the half-life at 200 µM in series [1] came to 2.4 h. Besides, the activation at 10 µM in the series on rat aorta strips is 29%.

Turning to `O=C(O)c1ccc(-c2cssc2=S)cc1` [Compound 11], the entries for the “% Compd ± SE” value in series [1] (1 h), in series [1] (4 h) and in series [1] (24 h) were 96.3 ± 0.2%, 90.0 ± 0.9% and 53 ± 2%, respectively. For the same compound, the activation at 100 µM with rat aorta strips (100 μM) was 42%. The “Stability (% compound ± SE), buffer” value in series [2] (24 h) is given as 94.8 ± 3.2%. Further, the “Stability (% compound ± SE) … (50×)” value in series [3] (1 h) is 99.0 ± 0.3%; in series [3] (6 h), 82.6 ± 0.2%; in series [3] (24 h) it was 37.6 ± 0.1%.

`CCOC(=O)c1ccc(-c2cssc2=S)cc1` [Compound 12]: in series [1], the half-life at 200 µM worked out at 2.7 h. Besides, the “Effect of glibenclamide on the concentration-response curve / EC50” value in the series on rat aorta strips was “almost the same”.

On to `O=C(O)COc1ccc(-c2cc(=S)ss2)cc1` [Compound 13], for which the “% Compd ± SE” value in series [1] (1 h) stood at 99.2 ± 0.1%; in series [1] (4 h), 96.0 ± 0.8%; in series [1] (24 h), 94.3 ± 2%. Besides, the activation at 100 µM in the series on rat aorta strips (100 μM) was determined as 39%. In addition, in series [2] (24 h), the “Stability (% compound ± SE), buffer” value came out at 101.8 ± 1.4%. The “Stability (% compound ± SE) … (50×)” value is 99.0 ± 0.4% in series [3] (1 h), 96.6 ± 0.1% in series [3] (6 h) and 81.9 ± 0.1% in series [3] (24 h).

In the case of `CCOC(=O)COc1ccc(-c2cc(=S)ss2)cc1` [Compound 14], the half-life at 200 µM in series [1] came out at 0.5 h. The activation at 10 µM in the series on rat aorta strips was 37%.

`O=C(O)c1csc(=S)s1` [Compound 15]: the “% Compd ± SE” value in series [1] (1 h) amounted to 99.2 ± 0.1%; in series [1] (4 h), 95 ± 1%; in series [1] (24 h), 94.8 ± 2%. For the same compound, the activation at 300 µM with rat aorta strips was determined as 17%. Besides, in series [2] (24 h), the “Stability (% compound ± SE), buffer” value turned out to be 100.0 ± 1.0%. In addition, the “Stability (% compound ± SE) … (50×)” value in series [3] (1 h) is 100.0 ± 0.2%; in series [3] (24 h), 96.6 ± 1.0%.

Take `COC(=O)c1csc(=S)s1` [Compound 16]: in series [1], the half-life at 200 µM is 1.5 h. Besides, in the series on rat aorta strips (100 μM), the activation at 100 µM worked out at 25%.

Consider `NC(=S)c1ccc(C(=O)O)cc1` [Compound 17], for which the “% Compd ± SE” value in series [1] (1 h) amounted to 91.6 ± 0.3%; in series [1] (4 h), 85.0 ± 0.1%; in series [1] (24 h), 64.7 ± 0.2%. Further, the activation at 300 µM in the series on rat aorta strips is 27%. In addition, the “Stability (% compound ± SE), buffer” value in series [2] (24 h) is 82.3 ± 0.4%. Moreover, the “Stability (% compound ± SE) … (50×)” value is 97.6 ± 0.2% in series [3] (1 h), 84.1 ± 0.2% in series [3] (6 h) and 25.0 ± 0.6% in series [3] (24 h).

As for `COC(=O)c1ccc(C(N)=S)cc1` [Compound 18], in series [1], the half-life at 200 µM stood at 3.7 h. Also, the activation at 10 µM with rat aorta strips came out at 33%.

`O.Oc1cc(O)c2c(c1)O[C@H](c1ccc(O)c(O)c1)[C@@H](O)C2` [catechin, reference compound]: in series [4] (rings incubated with catechin 10 mM and 500 μM pyrogallol), the Ach-induced maximal relaxation came to 77 ± 3%.

In the case of `Oc1cccc(O)c1O` [pyrogallol, reference compound], the “Maximum Ach-induced relaxation” value in series [4] (rings incubated with 500 μM pyrogallol alone for 15 min (control 80 ± 3%)) is 15 ± 3%.
